Experimental data: patent US20090018111A1, “Novel Antimicrobial Medicament” (priority 2004, published 2009)
Where two headings read alike, the source gives them in different places.

Legend:
Assay in all cases: Sensitivity test (agar dilution)
E. coli NIHJ JC-2 = type: cell-based, Escherichia coli; settings: Escherichia coli
Protocol: (§1) The antibacterial activities were tested against various 18 bacteria (27 standard strains) which are representative bacteria caused clinically infectious disease (Staphylococcus aureus 3 strains, Staphylococcus epidermidis 1 strain, Micrococcus luteus 1 strain, Streptococcus pyogenes 1 strain, Enterococcus faecalis 1 strain, Enterococcus faecium 1 strain, Bacillus subtilis 1 strain, Escherichia coli 3 strains, Klebsiella pneumoniae 1 strain, Proteus mirabilis 1 strain, Proteus vulgaris 2 strains, Pseudomonas aeruginosa 3 strains, Serratia marcescens 2 strains, Enterobacter aerogenes 1 strain, Stenotrophomonas maltophilia 1 strain, Enterobacter cloacae 1 strain, Citrobacter freundii 1 strain, Moraxella catarrhalis 2 strains).
(§2) According to the standard method of Japan Chemotherapeutic Society (Chemotherapy, vol. […], p 76-79 (1981)) the test was carried out using the agar dilution method. After dissolving test samples in distilled water, agar medium containing the test samples was prepared in such a manner that the final concentration became twice serial dilution by pouring serially diluted combination drug solution or a single drug solution into agar medium. As agar medium was used Mueller Hinton Agar medium (MHA). Then, each strain was cultivated over night at 37° C. in an incubator and suspended in buffered saline solution with gelatin (BSG) in the concentration of about 10^6 CFU/ml. The suspension (about 5 μl) containing test strains was inoculated to the medium containing the test samples by Micro Planter.
(§3) When the sample is subjected to sensitivity test, this mixed solution was diluted by twice serial dilution method.
(§4) Furthermore, when the drug is solely used, each test sample was used as it is, and diluted by twice serial dilution method from the maximum concentration to the minimum concentration.
(§5) FIC index based on MIC value was calculated. […] Namely, when FIC index calculated by the following formula is equal or less than 1, the enhanced effect of the combination drug in said ratio is considered as positive. When FIC index is over 1, the enhanced effect of the combination drug in said ratio is considered as negative.
(§6) Formula of FIC index: FIC index=(MIC of Drug A in combination/MIC of Drug A alone)+(MIC of Drug B in combination/MIC of Drug B alone) N.C. in tables means being not calculated.

P. aeruginosa TL-2667 = type: cell-based, Pseudomonas aeruginosa; settings: Pseudomonas aeruginosa
Protocol: as §1, §2, §3, §4, §5, §6

P. aeruginosa TL-2666 = type: cell-based, Pseudomonas aeruginosa; settings: Pseudomonas aeruginosa
Protocol: as §1, §2, §3, §4, §5, §6

P. aeruginosa IFO3451 = type: cell-based, Pseudomonas aeruginosa; settings: Pseudomonas aeruginosa
Protocol: as §1, §2, §3, §4, §5, §6

C[C@H]1C=C(c2csc(SC3=C(C(=O)O)N4C(=O)[C@H]([C@@H](C)O)[C@H]4[C@H]3C)n2)CN1 [SM, (4R,5S,6S)-6-[(1R)-1-Hydroxyethyl]-4-methyl-3-({4-[(5S)-5-methyl-2,5-dihydro-1H-pyrrol-3-yl]-1,3-thiazol-2-yl}sulfanyl)-7-oxo-1-azabicyclo[3.2.0]hept-2-ene-2-carboxylic acid]
MIC (E. coli NIHJ JC-2; NIHJJC2, Concomitant (PAPM:SM = 1:1), E. coli NIHJ JC-2, read-out: MIC concomitant): 0.063 mg/L
MIC (E. coli NIHJ JC-2; NIHJJC2, Concomitant (PIPC:SM = 1:1), E. coli NIHJ JC-2, read-out: MIC concomitant): 0.063 mg/L
MIC (E. coli NIHJ JC-2; NIHJJC2, Concomitant drug (MEPM:SM = 2:1), read-out: MIC): ≤ 0.008 mg/L
MIC (E. coli NIHJ JC-2; NIHJJC2, alone, read-out: MIC): 0.125 mg/L
MIC (E. coli NIHJ JC-2; NIHJJC2, drug alone, E. coli NIHJ JC-2, read-out: MIC alone): 0.125 mg/L
MIC (P. aeruginosa TL-2667; TL2667, Concomitant (AZT:SM = 1:1), P. aeruginosa TL-2667, read-out: MIC concomitant): 8 mg/L
MIC (P. aeruginosa TL-2667; TL2667, Concomitant (BIPM:SM = 1:1), P. aeruginosa TL-2667, read-out: MIC concomitant): 4 mg/L
MIC (P. aeruginosa TL-2667; TL2667, Concomitant (CAZ:SM = 1:1), P. aeruginosa TL-2667, read-out: MIC concomitant): 8 mg/L
MIC (P. aeruginosa TL-2667; TL2667, Concomitant (CPFX:SM = 1:1), P. aeruginosa TL-2667, read-out: MIC concomitant): 2 mg/L
MIC (P. aeruginosa TL-2667; TL2667, Concomitant (DRPM:SM = 1:1), P. aeruginosa TL-2667, read-out: MIC concomitant): 2 mg/L
MIC (P. aeruginosa TL-2667; TL2667, Concomitant (IPM:SM = 1:1), read-out: MIC): 8 mg/L
MIC (P. aeruginosa TL-2667; TL2667, Concomitant (MEPM:SM = 1:1), read-out: MIC): 4 mg/L
MIC (P. aeruginosa TL-2667; TL2667, Concomitant (MEPM:SM = 1:2), read-out: MIC): 4 mg/L
MIC (P. aeruginosa TL-2667; TL2667, Concomitant (MEPM:SM = 1:4), read-out: MIC): 8 mg/L
MIC (P. aeruginosa TL-2667; TL2667, Concomitant (PAPM:SM = 1:1), P. aeruginosa TL-2667, read-out: MIC concomitant): 16 mg/L
MIC (P. aeruginosa TL-2667; TL2667, Concomitant (PIPC:SM = 1:1), P. aeruginosa TL-2667, read-out: MIC concomitant): 16 mg/L
MIC (P. aeruginosa TL-2667; TL2667, Concomitant drug (MEPM:SM = 2:1), read-out: MIC): 2 mg/L
MIC (P. aeruginosa TL-2667; TL2667, alone, read-out: MIC): 16 mg/L
MIC (P. aeruginosa TL-2667; TL2667, drug alone, P. aeruginosa TL-2667, read-out: MIC alone): 16 mg/L
MIC (P. aeruginosa TL-2666; TL2666, Concomitant (AZT:SM = 1:1), P. aeruginosa TL-2666, read-out: MIC concomitant): 8 mg/L
MIC (P. aeruginosa TL-2666; TL2666, Concomitant (BIPM:SM = 1:1), P. aeruginosa TL-2666, read-out: MIC concomitant): 1 mg/L
MIC (P. aeruginosa TL-2666; TL2666, Concomitant (CAZ:SM = 1:1), P. aeruginosa TL-2666, read-out: MIC concomitant): 8 mg/L
MIC (P. aeruginosa TL-2666; TL2666, Concomitant (CPFX:SM = 1:1), P. aeruginosa TL-2666, read-out: MIC concomitant): 2 mg/L
MIC (P. aeruginosa TL-2666; TL2666, Concomitant (DRPM:SM = 1:1), P. aeruginosa TL-2666, read-out: MIC concomitant): 1 mg/L
MIC (P. aeruginosa TL-2666; TL2666, Concomitant (IPM:SM = 1:1), read-out: MIC): 1 mg/L
MIC (P. aeruginosa TL-2666; TL2666, Concomitant (MEPM:SM = 1:1), read-out: MIC): 1 mg/L
MIC (P. aeruginosa TL-2666; TL2666, Concomitant (MEPM:SM = 1:2), read-out: MIC): 2 mg/L
MIC (P. aeruginosa TL-2666; TL2666, Concomitant (MEPM:SM = 1:4), read-out: MIC): 4 mg/L
MIC (P. aeruginosa TL-2666; TL2666, Concomitant (PAPM:SM = 1:1), P. aeruginosa TL-2666, read-out: MIC concomitant): 8 mg/L
MIC (P. aeruginosa TL-2666; TL2666, Concomitant (PIPC:SM = 1:1), P. aeruginosa TL-2666, read-out: MIC concomitant): 16 mg/L
MIC (P. aeruginosa TL-2666; TL2666, Concomitant drug (MEPM:SM = 2:1), read-out: MIC): 0.5 mg/L
MIC (P. aeruginosa TL-2666; TL2666, alone, read-out: MIC): 16 mg/L
MIC (P. aeruginosa TL-2666; TL2666, drug alone, P. aeruginosa TL-2666, read-out: MIC alone): 16 mg/L
MIC (P. aeruginosa IFO3451; IFO3451, Concomitant (AZT:SM = 1:1), P. aeruginosa IFO3451, read-out: MIC concomitant): 2 mg/L
MIC (P. aeruginosa IFO3451; IFO3451, Concomitant (BIPM:SM = 1:1), P. aeruginosa IFO3451, read-out: MIC concomitant): 0.25 mg/L
MIC (P. aeruginosa IFO3451; IFO3451, Concomitant (CAZ:SM = 1:1), P. aeruginosa IFO3451, read-out: MIC concomitant): 2 mg/L
MIC (P. aeruginosa IFO3451; IFO3451, Concomitant (CPFX:SM = 1:1), P. aeruginosa IFO3451, read-out: MIC concomitant): 0.125 mg/L
MIC (P. aeruginosa IFO3451; IFO3451, Concomitant (DRPM:SM = 1:1), P. aeruginosa IFO3451, read-out: MIC concomitant): 0.25 mg/L
MIC (P. aeruginosa IFO3451; IFO3451, Concomitant (IPM:SM = 1:1), read-out: MIC): 0.5 mg/L
MIC (P. aeruginosa IFO3451; IFO3451, Concomitant (MEPM:SM = 1:1), read-out: MIC): 0.5 mg/L
MIC (P. aeruginosa IFO3451; IFO3451, Concomitant (MEPM:SM = 1:2), read-out: MIC): 1 mg/L
MIC (P. aeruginosa IFO3451; IFO3451, Concomitant (MEPM:SM = 1:4), read-out: MIC): 2 mg/L
MIC (P. aeruginosa IFO3451; IFO3451, Concomitant (PAPM:SM = 1:1), P. aeruginosa IFO3451, read-out: MIC concomitant): 2 mg/L
MIC (P. aeruginosa IFO3451; IFO3451, Concomitant (PIPC:SM = 1:1), P. aeruginosa IFO3451, read-out: MIC concomitant): 8 mg/L
MIC (P. aeruginosa IFO3451; IFO3451, Concomitant drug (MEPM:SM = 2:1), read-out: MIC): 0.25 mg/L
MIC (P. aeruginosa IFO3451; IFO3451, alone, read-out: MIC): 8 mg/L
MIC (P. aeruginosa IFO3451; IFO3451, drug alone, P. aeruginosa IFO3451, read-out: MIC alone): 8 mg/L
